# Laboratory results as given in publication PMC10298926, “Biophysical Characterization of the Binding Mechanism between the MATH Domain of SPOP and Its Physiological Partners” (International Journal of Molecular Sciences, 2023).
# Where a SMILES comes first, the peptide text is derived from it.
# What was measured:
# SPOP MATH R71A = SPOP MATH R71A (Homo sapiens, UniProt O43791, R70A, form not given); experiment: Stopped-flow pseudo-first-order binding kinetics; settings: dansylated Puc, 298 K
# Method: (§1) To quantitatively address the role of specific residues in the binding mechanism of SPOP MATH, we resorted to taking advantage of the site-directed mutagenesis and generated ten site-directed mutants corresponding to the residues located in the binding pocket of the SPOP MATH domain. In particular, we produced a set of single mutants where residues R71, Y88, F103, Y124, F125, K130, D131, W132, F134, and K135 were substituted with alanine.
# (§2) Binding kinetic experiments were performed on an Applied Photophysics DX-17MV stopped-flow apparatus (Applied Photophysics, Leatherhead, UK). Pseudo-first-order binding experiments were performed by mixing a constant concentration (2 μM) of MATH domain with increasing dansylated peptides concentrations, from 2 to 10 μM of Puc and MacroH2A, and 2 to 40 µM of PTEN. The samples were excited at 280 nm, and the emission fluorescence was recorded by using a bandpass 320 nm cutoff filter. The experiments were performed at 298 K. For ionic strength dependence with Puc and MacroH2A, the buffers used were 50 mM sodium-HEPES, pH 7.2, supplemented with 50 mM, 100 mM, 200 mM, or 500 mM of sodium chloride (NaCl). For the PTEN binding salt dependence experiments, lower concentrations of salt were added for the previous buffer list mentioned (10 mM, 25 mM, and 50 mM of sodium chloride). For each acquisition, five traces were collected, averaged, and satisfactorily fitted to a single exponential equation.
# SPOP MATH K130A = SPOP MATH K130A (Homo sapiens, UniProt O43791, K129A, form not given); experiment: Stopped-flow pseudo-first-order binding kinetics; settings: dansylated Puc, 298 K
# Method: as §1, §2
# SPOP MATH WT [1] = target: T1, SPOP MATH WT (Homo sapiens, UniProt O43791); experiment: Equilibrium binding, FRET (Trp to dansyl), fluorescence titration; settings: read-out: Equilibrium KD; dansylated peptide 0 to 40 µM; constant SPOP MATH WT (2 µM in methods, 1 µM in results); excitation 280 nm, emission 300-400 nm; 298 K; hyperbolic fit
# From the text: The MATH domain of SPOP exerts its functions by specifically recognizing different substrates and, therefore, acting as an adaptor module between SPOP and its physiological ligands. In an effort to provide a complete characterization of SPOP MATH binding mechanisms, we investigated the recognition of three peptides mimicking a specific region of the substrates Puc (region 96–105), MacroH2A (region 166–179), and PTEN (region 354–368). […] Moreover, the three-dimensional structure of SPOP MATH in complexes with each of the peptides has been previously reported (3HQH, 3HQL, and 4OV1 PDB entries, respectively). Similar to previous work on other protein–protein recognition modules, we employed peptides carrying a covalently attached N-terminal dansyl fluorophore. Binding was then followed by measuring the FRET (Forster resonance energy transfer) between the three tryptophan residues of the SPOP MATH domain (donor) and the dansyl group of the peptides (acceptor).
# To address the equilibrium binding affinity of SPOP MATH and its substrates, a fixed concentration of the protein (1 µM) was challenged with increasing peptide concentrations. In all cases, the fluorescence-monitored transition returned a hyperbolic behavior as described in the Section 4, which allowed estimating a dissociation constant of 1.4 ± 0.4 µM, 1.6 ± 0.2 µM, and 5.5 ± 0.5 µM for Puc, MacroH2A, and PTEN, respectively (Figure 2). These values appear partly consistent with what was previously reported by Zhuang et al. by using surface plasmon resonance. […]
# Equilibrium binding experiments were performed on a Fluoromax-4 single-photon-counting spectrofluorometer (Jobin-Yvon, Newark, NJ, USA). The SPOP MATH domain was excited at 280 nm and emission spectra were recorded between 300 and 400 nm, at increasing dansylated peptide concentrations. […]
# SPOP MATH WT [2] = target: T1, SPOP MATH WT; experiment: Stopped-flow displacement; type: binding; settings: preincubated complex (both 8 µM) mixed with 50 μM nondansylated peptide, 298 K, average of five single traces
# Method: (§3) To infer the mechanism of recognition of SPOP MATH, we resorted to performing time-resolved kinetic experiments. SPOP MATH was rapidly mixed with increasing concentrations of dansylated peptides (from 2 to 10 µM for Puc and MacroH2A, and from 2 to 40 µM for PTEN) in a stopped-flow apparatus at 298 K. The binding traces obtained by monitoring the time-resolved fluorescence were satisfactorily fitted to a single exponential equation, allowing calculating the observed rate constants kobs at different peptide concentrations. We then plotted the kobs values over the concentration of dansylated peptide and fitted the data to a simple linear function equation: kobs=kon Peptide+koff where kobs is the observed rate constant; kon and koff are the microscopic association and dissociation rate constants, respectively (Figure 2). The slope and y-axis intercept represent the microscopic association and dissociation rate constant, respectively. To minimize the error associated with the indirect measurement of the dissociation rate constant, we carried out displacement experiments to determine the koff values. The displacement experiments were designed by mixing the preformed complex SPOP MATH-dansylated peptides with a high excess of nondansylated peptide, as described in the Section 4. […] On the basis of these observations, it is possible to conclude that, in the case of binding to MacroH2A and PTEN, there is the presence of an additional step, which escapes detection by stopped-flow experiments and is likely to be negligible in the case of Puc. […] We note that such a case closely resembles the presence of a so-called burst phase, which is frequently observed in protein-folding studies.
# Microscopic dissociation rate constants (koff) were directly measured by performing displacement experiments on an Applied Photophysics DX-17MV stopped-flow apparatus (Applied Photophysics). […] The samples were excited at 280 nm and fluorescence emission was collected by using a 330 ± 30 nm bandpass filter. […] The observed rate constants were calculated from the average of five single traces. […]
# SPOP MATH WT [3] = target: T1, SPOP MATH WT; experiment: Stopped-flow pseudo-first-order binding kinetics; settings: 298 K
# Method: as §3, §2
# T1 sequence (O43791 1-182): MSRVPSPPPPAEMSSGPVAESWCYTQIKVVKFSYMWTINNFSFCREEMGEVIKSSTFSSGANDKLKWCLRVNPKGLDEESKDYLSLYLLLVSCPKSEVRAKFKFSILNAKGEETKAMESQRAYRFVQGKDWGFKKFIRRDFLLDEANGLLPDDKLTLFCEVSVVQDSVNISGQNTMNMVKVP
compound,measurement,setting,value
CC(C)[C@H](NC(=O)[C@H](CCC(=O)O)NC(=O)[C@H](CC(=O)O)NS(=O)(=O)c1cccc2c(N(C)C)cccc12)C(=O)N[C@H](C(=O)N[C@@H](CO)C(=O)N[C@H](C(=O)N[C@H](C(=O)N[C@@H](CO)C(=O)N[C@@H](CO)C(=O)N[C@@H](CO)C(=O)O)[C@@H](C)O)[C@@H](C)O)[C@@H](C)O [Puc] (HELM PEPTIDE1{[CN(C)c1cccc2c(S(=O)(=O)[*:2])cccc12].D.E.V.T.S.T.T.S.S.S}$$$$V2.0),Kd,SPOP MATH R71A; kinetic KD from kon and koff,3800 ± 100 nM
same,kon,"SPOP MATH R71A; stopped-flow, 2 µM MATH domain",8.8e+06 ± 500000 M⁻¹ s⁻¹
same,Kd,SPOP MATH K130A; kinetic KD from kon and koff,9500 ± 100 nM
same,kon,"SPOP MATH K130A; stopped-flow, 2 µM MATH domain",1.3e+07 ± 2e+06 M⁻¹ s⁻¹
same,Kd,SPOP MATH WT [1],1400 ± 500 nM
same,koff,SPOP MATH WT [2],26.1 ± 0.1 s⁻¹
same,Kd,"SPOP MATH WT [3]; read-out: Kinetics KD, WT, from kon (pseudo-first-order) and koff (displacement)",1400 ± 400 nM
same,kon,"SPOP MATH WT [3]; stopped-flow, 2 µM MATH domain, dansylated peptide 2 to 10 µM (Puc, MacroH2A) or 2 to 40 µM (PTEN), 50 mM sodium-HEPES, pH 7.2 (for ionic strength series), five traces averaged, slope of kobs vs peptide",1.9e+07 ± 1e+06 M⁻¹ s⁻¹
